Experimental data published in patent US20040254241A1, “Aryl sulfamate derivatives” (priority 2004, published 2004).

Molecular target: T1, recombinant human estrone sulfatase (Homo sapiens, UniProt P08842)
T1 construct: made in house; host or cells: Chinese Hamster Ovary (CHO) cells
T1 sequence (P08842 22-583): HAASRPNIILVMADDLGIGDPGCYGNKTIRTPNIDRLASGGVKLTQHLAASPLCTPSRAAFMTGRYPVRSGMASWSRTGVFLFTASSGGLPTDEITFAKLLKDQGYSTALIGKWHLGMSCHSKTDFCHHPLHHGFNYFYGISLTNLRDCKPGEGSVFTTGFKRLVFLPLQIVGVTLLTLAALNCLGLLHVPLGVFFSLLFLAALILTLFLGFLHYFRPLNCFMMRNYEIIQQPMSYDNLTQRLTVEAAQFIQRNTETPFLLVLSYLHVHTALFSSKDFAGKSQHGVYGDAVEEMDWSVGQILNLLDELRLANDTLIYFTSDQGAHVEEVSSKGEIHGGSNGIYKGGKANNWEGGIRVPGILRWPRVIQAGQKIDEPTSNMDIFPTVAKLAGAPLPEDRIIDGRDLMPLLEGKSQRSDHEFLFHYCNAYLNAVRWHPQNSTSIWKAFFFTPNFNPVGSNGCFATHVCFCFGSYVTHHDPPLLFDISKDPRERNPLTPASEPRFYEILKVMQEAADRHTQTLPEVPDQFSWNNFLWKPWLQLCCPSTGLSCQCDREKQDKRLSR
Assay: Test for inhibition of estrone sulfatase (steroid sulfatase)
Type: biochemical
Conditions: 4-methylumbelliferyl sulfate 0.3 mmol/L, phosphate buffer pH 7.5, 37° C., 1 hour; enzyme expressed in CHO cells, partially purified; read-out: Inhibitory activity against steroid sulfatase IC50
Experimental: Test Example 1: Test for Inhibition of Estrone Sulfatase (Steroid Sulfatase)
4-Methylumbelliferyl sulfate (final concentration 0.3 mmol/L), recombinant human estrone sulfatase (7.8 ng/well), and each solution of the test compound having each test concentrations (test compound was dissolved in 0.001 mL of DMSO) were added to a phosphate buffer (pH 7.5) (final volume 0.1 mL) containing 0.28 mol/L sucrose and 0.04 mol/L nicotinamide. An enzyme reaction was conducted at 37° C. for 1 hour. The human estrone sulfatase gene was introduced into Chinese Hamster Ovary (CHO) cells, and the recombinant human estrone sulfatase was expressed, then it was used after partial purification. After completing the enzyme reaction, 2 mol/L glycine-sodium hydroxide solution (pH 10.3) (0.13 mL) was added and stirred. Using a fluorescent plate reader (Cyto Fluor II), the fluorescent strength of the generated 4-methylumbelliferone was measured. The measurements were conducted in duplicate at the same time. The fluctuations within the assay were within 10%. An enzyme reaction without the presence of a test compound was conducted at the same time. The inhibitory activity against estrone sulfatase for each concentration of the test compounds was calculated using the following equation.
A: Amount of 4-methylumbelliferone when test compound is present
B: Amount of 4-methylumbelliferone when test compound is not present
Inhibitory activity against estrone sulfatase [formula]
The inhibitory activity against estrone sulfatase of the aryl sulfamate derivative can be expressed as the concentration (IC50) of aryl sulfamate derivative at which the estrone sulfatase activity in the presence of the aryl sulfamate derivative is half of that when no test compound is added.

IC50 [nM]	Compound
61	CCCCCCCCCNC(=O)/C(C)=C/c1ccc(OS(N)(=O)=O)cc1 [Compound 3]
38	CCCCCCCCCNC(=O)/C(C#N)=C(\C)c1ccc(OS(N)(=O)=O)c(Cl)c1 [Compound 55]
54	CCCCCCCCCNC(=O)/C(Br)=C/c1ccc(OS(N)(=O)=O)cc1 [Compound 42]
73	CCCCCCCCCNC(=O)/C=C/c1ccc(OS(N)(=O)=O)cc1 [Compound 1]
41	CCCCCCCCCNC(=O)/C(C#N)=C(\C)c1ccc(OS(N)(=O)=O)c(Br)c1 [Compound 56]
59	CCCCCCCCCNC(=O)/C(I)=C/c1ccc(OS(N)(=O)=O)cc1 [Compound 43]

Compound	IC50 [nM]
CCCCCCCCCNC(=O)/C(C#N)=C(\C)c1ccc(OS(N)(=O)=O)cc1 [Compound 13]	12
